Test results: US7041844B2, “Irreversible non-steroidal antagonist compound and its use in the treatment of prostate cancer” (The University Of Tennessee Research Corporation, priority 1996, dated 2006)

What was measured:
[1] = biological target: T1, rat prostate AR (Rattus norvegicus, UniProt P15207); test: Saturation binding of 3H-MIB in the AR preparation (Scatchard analysis)
T1 sequence (P15207 1-902): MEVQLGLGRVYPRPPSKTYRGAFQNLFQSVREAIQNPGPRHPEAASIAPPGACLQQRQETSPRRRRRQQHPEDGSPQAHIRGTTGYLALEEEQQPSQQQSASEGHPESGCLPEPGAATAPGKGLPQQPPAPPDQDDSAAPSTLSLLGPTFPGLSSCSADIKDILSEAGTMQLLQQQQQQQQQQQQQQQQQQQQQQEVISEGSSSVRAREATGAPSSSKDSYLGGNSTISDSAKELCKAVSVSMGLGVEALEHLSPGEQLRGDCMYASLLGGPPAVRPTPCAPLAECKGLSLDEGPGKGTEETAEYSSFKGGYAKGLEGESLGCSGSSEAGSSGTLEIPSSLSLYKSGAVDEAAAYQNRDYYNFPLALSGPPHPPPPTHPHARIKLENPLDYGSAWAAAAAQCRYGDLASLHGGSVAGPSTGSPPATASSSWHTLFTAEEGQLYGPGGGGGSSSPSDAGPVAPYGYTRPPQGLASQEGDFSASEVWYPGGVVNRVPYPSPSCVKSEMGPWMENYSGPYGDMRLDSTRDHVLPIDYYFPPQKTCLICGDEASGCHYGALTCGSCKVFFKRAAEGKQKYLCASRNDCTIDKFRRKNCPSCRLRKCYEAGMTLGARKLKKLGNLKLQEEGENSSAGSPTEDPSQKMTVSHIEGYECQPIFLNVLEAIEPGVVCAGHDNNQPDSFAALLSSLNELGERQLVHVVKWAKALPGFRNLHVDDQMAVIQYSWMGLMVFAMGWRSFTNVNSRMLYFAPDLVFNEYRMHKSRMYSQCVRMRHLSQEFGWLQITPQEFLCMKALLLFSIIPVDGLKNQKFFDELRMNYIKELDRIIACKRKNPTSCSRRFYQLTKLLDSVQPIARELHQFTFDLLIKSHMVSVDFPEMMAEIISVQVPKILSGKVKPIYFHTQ

[2] = biological target: T2, rat ventral prostate AR (Rattus norvegicus, UniProt P15207); test: Competitive displacement of 3H-MIB from AR binding sites; conditions: comparison of Ki values
T2 construct: from tissue; host or cells: ventral prostate cytosol of castrated male Sprague-Dawley rats
T2 sequence (P15207 1-902): T1 sequence (P15207 1-902)
Description: Receptor binding studies for the compounds shown in Table 3 were conducted as follows.
1. AR were isolated from rat ventral prostate tissue by differential centrifugation.
2. Samples of the following composition listed in Table 4 were incubated at 4° C. for 18 hours:
Percent Specific Binding=(B/B0)×100
Data were computer fitted to the equation: […]
Equilibrium dissociation constant of each isomer (Ki) was determined using the equation.
AR isolation was performed as follows.

SMILES | Kd [1] [nM] | AR binding affinity (result in words) [2]
C[C@@H]1CC2=CC(=O)CC[C@@H]2[C@H]2CC[C@@]3(C)[C@@H](CC[C@]3(C)O)[C@@H]21 [MIB, Mibolerone] | 0.182 | –
O=C(CCl)NS[N+](=O)[O-] [S-NT-CAA, S-nitro-thio chloroacetamide] | – | close to that of S-Casodex
O=[N+]([O-])SN=C=S [S-NT-NCS, S-nitro-thio-isothiocyanate] | – | close to that of S-Casodex
